Test results from ChEMBL document CHEMBL1126510, “Synthesis of D-3-deoxy-3-phosphonomethyl-myo-inositol and its dimethyl ester - compounds of use in studying the ptdins-3-kinase signalling pathway” (Bioorg Med Chem Lett, 1993).
pIC50: −log10 of the molar value. Active and inactive are the calls of the source. No cut-off for these calls is given here.

Assays:
Settings in all cases: Mus musculus
NIH3T3 [1] = test: Inhibitory activity against growth of vis-sis transformed NIH 3T3 cells at 1 mM; IA means inactive; format: functional, cell-based
NIH3T3 [2] = test: Inhibitory activity against growth of wild type NIH 3T3 cells at 1 mM; format: functional
NIH3T3 [3] = test: Inhibitory concentration against growth of wild type NIH 3T3 cells with inositol; format: functional, cell-based
NIH3T3 [4] = test: Inhibitory concentration against growth of vis-sis transformed NIH 3T3 cells with inositol; format: functional, cell-based
NIH3T3 [5] = test: Inhibitory concentration against growth of wild type NIH 3T3 cells without inositol; format: functional, cell-based
NIH3T3 [6] = test: Inhibitory concentration against growth of vis-sis transformed NIH 3T3 cells without inositol; format: functional, cell-based
NIH3T3 [7] = test: Inhibitory activity against growth of wild type NIH 3T3 cells at 1 mM; IA means inactive; format: functional, cell-based
NIH3T3 [8] = test: Inhibitory concentration against growth of vis-sis transformed NIH 3T3 cells at 1 mM; IA means inactive; format: functional, cell-based

Row | SMILES | inhibition (NIH3T3 [1]) | inhibition at 1000 µM (NIH3T3 [2]) [%] | pIC50 (NIH3T3 [3]) | pIC50 (NIH3T3 [4]) | pIC50 (NIH3T3 [5]) | pIC50 (NIH3T3 [6]) | inhibition (NIH3T3 [7]) | inhibition (NIH3T3 [8])
1 | O=P(O)(O)CC1C(O)[C@H](O)C(O)[C@@H](O)C1O (some centres undefined) | inactive | 30 | – | – | – | – | – | –
2 | OCC1C(O)C(O)C(O)C(O)C1O (centres undefined) | – | – | 2.37 | 2.26 | 1.62 | 2.00 | – | –
3 | COP(=O)(CC1C(O)[C@H](O)C(O)[C@@H](O)C1O)OC (some centres undefined) | inactive | 30 | – | – | – | – | – | –
4 | OC1C(O)C(O)C(CI)C(O)C1O (centres undefined) | – | – | 1.37 | 1.25 | 1.62 | 1.70 | – | –
5 | C=C1C(O)[C@H](O)C(O)[C@@H](O)C1O (some centres undefined) | – | – | – | – | – | – | inactive | inactive
